In patent publication US20050031581A1, “Termite feeding stimulant and method for using same” (priority 2001, published 2005):

Tests used:
termites [1] = conditions: ambient atmosphere; cited from earlier work
[2] = test system: Coptotermes formosanus Shiraki; conditions: in vivo; cited from earlier work
termites [3] = conditions: extended feeding tests, e.g. greater than 30 days; cited from earlier work
Mastotermes darviniensis = conditions: in vivo; cited from earlier work
termites [4] = conditions: limited by volatility of the compound; cited from earlier work
Coptotermes lacteus = conditions: in vivo; cited from earlier work
termites [5] = assay: Feeding on bait matrix with chitin synthesis inhibitor added; format: in vivo; conditions: added to the bait matrix of the bioassays
Description: Note that Chitin synthesis inhibitors, such as hexaflumuron, were added to the bait matrix described in the bioassays above resulting in less feeding on the bait matrix treated with hexaflumuron compared to its control. […] Accordingly, it is believed that adding sitosterol to such a bait matrix may provide a way to overcome the termites' aversion to hexaflumuron.

Coptotermes formosanus = assay: Cellulose TLC plate feeding bioassay; format: in vivo; conditions: 2.23, 7.45 and 22.34 ugm sitosterol/mg cellulose, FIG. 4
Description: (§1) Termite workers (100 total) were removed from their storage tubs and placed in a smaller plastic Rubbermaid® tub (having a volume of 414 ml) that contained soil (with a 20% by weight moisture). These termites were allowed to acclimate to their new surroundings for 24 hours before the feeding bioassay began. Solutions of sitosterol in acetone (of 1.0 ugm/ul, […], or 10 ugm/ul, respectively) were applied to three different cellulose squares with a Hamilton syringe (of 100 micro-liters (ul) capacity), wherein the squares were provided on a single thin-layer chromatography (TLC) glass plate. For the three cellulose squares, each single cellulose square (of 13.43 mg of cellulose) was evenly wetted with 30 ul of only one of the solutions. Thus, a dose of one of 30 ugm, 100 ugm or 300 ugm of sitosterol was applied, respectively, to a corresponding one of the cellulose squares. Accordingly, the concentrations on these three cellulose squares were, respectively, 2.23 ugm sitosterol/mg cellulose (equivalently, […] sitosterol to cellulose), 7.45 ugm sitosterol/milligram (mg) cellulose (equivalently, 0.745% sitosterol to cellulose), and 22.34 ugm sitosterol/mg cellulose (equivalently, 2.23% sitosterol to cellulose). Note that a fourth cellulose square was treated with 30 ul of acetone as a control. […]

Reticulitermes tibialis [6] = assay: Field test of sitosterol cellulose pellets in underground termite jar traps; format: in vivo; conditions: pellet 1% sitosterol and 99% cellulose, 15 jar traps in the field, FIG. 1
Description: Sitosterol was tested in the field as a feeding stimulant for Reticulitermes tibialis. Sitosterol (300 mg) was dissolved in 30 ml of acetone and added to 30 gm of cellulose powder (from Bio-Serv Inc., Frenchtown, N.J.), and the combination was dried overnight. A hydraulic press (providing 15,000 pounds per square inch force) was used to make hard pellets (wherein each pellet was approximately 3 gm, 2.5 cm diameter, 5 mm thickness, having 1% sitosterol and 99% cellulose). Control pellets of cellulose powder alone (3 gm) were made similarly.
The pellets were tested in underground termite traps made from Nalgene jars (having dimensions of approximately 10 cm diameter, 10 cm height) with 3 mm holes drilled at 3 cm intervals to allow termites to enter each jar. The jar traps were filled with soil (20% moisture). Two pellets were placed on the surface of the soil both within and at the top of each jar trap, one pellet containing cellulose (3 gm) plus sitosterol […] and the other pellet containing only cellulose (3 gm).
One of the jar traps containing a 1% sitosterol pellet and a cellulose control pellet was placed at the base of a fence post that was previously determined to be infested with termites. The traps were checked once a week for feeding. When termite feeding was apparent, both pellets were removed and weighed to determine the amount of each pellet that had been eaten. […]

termites [7] = assay: Toxic effects of sitosterol to termites; conditions: in vivo
Text: (§2) Several aspects of sitosterol make it a promising compound for enhancing Coptotermes formosanus, and Reticulitermes tibialis control. […] Termite baits are most frequently placed in the soil where moisture conditions are a factor; i.e., soil having at least 20% moisture, and/or occasionally saturated with water. […] Sitosterol has little toxic risk, and it has been tested in humans as an alternative method to lower plasma cholesterol levels. Sitosterol is an economically rational additive to a termite bait system. For example, the cost of the sitosterol needed to treat one termite bait roll of the size and proportion of paper (e.g., 10 cm by 100 cm) is about one cent to reach the concentration of our highest tested dose (300 ugm).

Reticulitermes tibialis [8] = assay: Paper feeding bioassay; format: in vivo; conditions: 0.60, 2.00 and 5.99 ugm sitosterol/mg paper bait substrate; 100 termites, FIG. 3
Description: The termites in the tub were allowed to acclimate to their new surroundings for 24 hours before the present feeding bioassay began. Each of three rectangular bait matrixes (each matrix being approximately 100 mg of bait substrate, the substrate being paper) was divided in two halves with a pencil line, each half having a 50.06 mg bait substrate upon which the termites were to feed. For each bait matrix, one half (the “experimental” half) was provided with a given sitosterol dose, and the other half was provided as a control, and accordingly had no sitosterol applied thereto. In particular, for each bait matrix, exactly one of three solutions of sitosterol in acetone (each solution having one of the concentrations: 1 ugm/ul, […], or 10 ugm/ul) was applied to the “experimental” half of the bait matrix with a Hamilton syringe (of 100 ul capacity), and only acetone was applied to the other (control) half as a control. More precisely, the experimental half of each bait matrix rectangle was evenly wetted with 30 ul of a different one of the solutions of sitosterol, thus applying on the experimental bait matrix half of each bait matrix a dose of only one of 30 ugm, 100 ugm or 300 ugm of sitosterol. The sitosterol concentrations tested were therefore 0.60, 2.00, and 5.99 ugm sitosterol/mg of bait substrate. […]

Reticulitermes tibialis [9] = assay: Cellulose TLC plate feeding bioassay; format: in vivo; conditions: every dose tested: 30, 100 and 300 ugm per cellulose square; 100 termites, up to 7 days, FIG. 2
Description: Such behavioral feeding bioassays were conducted using the following protocol.
as §1

[10] = Physical properties of sitosterol; format: physicochemical
Text: as §2

For `O=C=O` [CO2, carbon dioxide], the “CO2 concentration attractive to termites” value (termites [1]) is given as “at least 0.2 % by volume”.
For `N[C@H](CC(=O)O)C(=O)O` [D-aspartic acid], the “feeding compared with a water control” value [2] is given as “fed upon more than a water control” and the toxicity to termites (termites [3]) is given as “has shown toxicity to termites”.
For `Oc1ccc(O)cc1` [Hydroquinone], the feeding stimulation (Mastotermes darviniensis) is given as “stimulated feeding”, the “duration of phagostimulatory effects” value (termites [4]) is given as “one month” and the feeding stimulation (Coptotermes lacteus) is given as “stimulated feeding”.
For `N[C@@H](CCC(=O)O)C(=O)O` [L-glutamic acid], the “feeding compared with a water control” value [2] is listed as “fed upon more than a water control”.
With `O=C(NC(=O)c1c(F)cccc1F)Nc1cc(Cl)c(OC(F)(F)C(F)F)c(Cl)c1` [hexaflumuron] the “feeding on treated bait matrix compared to its control” value (termites [5]) was “less feeding”.
In the case of `CC[C@H](CC[C@@H](C)[C@H]1CC[C@H]2[C@@H]3CC=C4C[C@@H](O)CC[C@]4(C)[C@H]3CC[C@]12C)C(C)C` [sitosterol], the “feeding on cellulose squares having sitosterol versus control square” value (Coptotermes formosanus) is reported as “ate substantially more”, the “amount of pellet eaten by the termites versus cellulose control pellet” value (Reticulitermes tibialis [6]) is reported as “more than twice as much” and the “toxic effects to termites” value (termites [7]) is reported as “no toxic effects”. The “area of bait matrix half consumed versus control side” value (Reticulitermes tibialis [8]) was “consumed substantially more than the control side”, the “feeding on cellulose treated with sitosterol versus control square” value (Reticulitermes tibialis [9]) was “fed significantly more” and the stability and volatility [10] was “stable, nonvolatile”. The hydrophobicity ([10]; soil moisture/water) was “hydrophobic compound which resists being washed off”.
